Here are results for 1 compound from BindingDB's records for doi:10.1021/jm00398a021 (Bristol-Myers, 1988).

In general, IC50 refers to the concentration that inhibits the measured activity by half.

The assay deals with D(2) dopamine receptor (Rattus norvegicus, UniProt P61169). Kind of assay: ChEBML_58532. From the text: Ability to inhibit [3H]spiperone binding to Dopamine receptor D2 in rat corpus striatum
Sequence of D(2) dopamine receptor (P61169 whole entry): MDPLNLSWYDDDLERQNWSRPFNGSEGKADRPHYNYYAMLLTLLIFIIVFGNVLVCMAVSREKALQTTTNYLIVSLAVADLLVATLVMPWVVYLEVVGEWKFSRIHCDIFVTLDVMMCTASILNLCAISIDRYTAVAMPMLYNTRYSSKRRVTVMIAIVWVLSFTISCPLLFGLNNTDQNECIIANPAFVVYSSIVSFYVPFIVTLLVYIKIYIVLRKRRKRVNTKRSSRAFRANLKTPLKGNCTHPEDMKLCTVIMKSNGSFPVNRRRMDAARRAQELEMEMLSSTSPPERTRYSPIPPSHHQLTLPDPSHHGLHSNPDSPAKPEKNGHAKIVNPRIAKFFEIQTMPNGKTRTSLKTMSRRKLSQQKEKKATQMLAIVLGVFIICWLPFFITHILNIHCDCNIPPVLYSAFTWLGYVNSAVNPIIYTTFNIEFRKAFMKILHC

For the compound `O=c1scc(O)n1CCCCN1CCN(c2ccccn2)CC1`, the IC50 was > 1000 nM.
